From patent US9204653B2, “5-fluoro pyrimidine derivatives” (DOW AGROSCIENCES LLC, priority 2008, dated 2015)
Like-named read-outs stand apart in the source and are kept apart here.

Tested on: Mycosphaerella graminicola; Anamorph: Septoria tritici; Bayer Code SEPTTR
Test: Leaf blotch of wheat, foliar fungicide treatment, one day protectant (1DP) or three day curative (3DC)
Type: in vivo, Septoria tritici on wheat plants (variety Yuma)
Conditions: Zymoseptoria tritici; for pest or weed control at 100 ppm: read-out: SEPTTR 3DC 100 ppm
[1] = 24 h, one day protectant (1DP), 25 ppm (first 1DP column), percent control rating, read-out: SETTTR 1DP 25 ppm
[2] = 24 h, one day protectant (1DP), 25 ppm as printed (second 1DP column), percent control rating, read-out: SETTTR 1DP 25 ppm
[3] = 72 h, three day curative (3DC), 25 ppm, percent control rating, read-out: SEPTTR 3DC 25 ppm
[4] = 72 h, three day curative (3DC), percent control rating

| Compound | pest or weed control at 25 ppm [1] [%] | pest or weed control at 25 ppm [2] [%] | pest or weed control at 25 ppm [3] [%] | pest or weed control at 100 ppm [4] [%] | pest or weed control at 25 ppm (24 h, one day protectant (1DP), 25 ppm (first 1DP column), percent disease control rating, read-out: SETTTR 1DP 25 ppm) [%] | pest or weed control at 25 ppm (24 h, one day protectant (1DP), 25 ppm as printed (second 1DP column), percent disease control rating, read-out: SETTTR 1DP 25 ppm) [%] | pest or weed control at 25 ppm (72 h, three day curative (3DC), 25 ppm, percent disease control rating, read-out: SEPTTR 3DC 25 ppm) [%] | pest or weed control at 100 ppm (72 h, three day curative (3DC), percent disease control rating) [%] |
| --- | --- | --- | --- | --- | --- | --- | --- | --- |
| COc1ncc(F)c(NOCCOc2ccccc2)n1 [Compound 1081] | 0 to 25 | 0 to 25 | 0 to 25 | 0 to 25 |  |  |  |  |
| Oc1ncc(F)c(NCOCc2ccccc2)n1 [Compound 1082] | 0 to 25 | 0 to 25 | 0 to 25 | 0 to 25 |  |  |  |  |
| CC(=O)OCOc1ncc(F)c(/N=C/N(C)C)n1 [Compound 1083] | 76 to 100 | 76 to 100 | 76 to 100 | 76 to 100 |  |  |  |  |
| CN(C)/C=N/c1nc(OCOC(=O)C2CCCC2)ncc1F [Compound 1084] | 76 to 100 | 76 to 100 | 76 to 100 | 76 to 100 |  |  |  |  |
| CN(C)/C=N/c1nc(OCOC(=O)c2ccccc2)ncc1F [Compound 1085] | 76 to 100 | 76 to 100 | 76 to 100 | 76 to 100 |  |  |  |  |
| C=CCOc1ncc(F)c(NNc2cccc(F)n2)n1 [Compound 1086] | 0 to 25 | 0 to 25 | 0 to 25 | 0 to 25 |  |  |  |  |
| C=CCOc1ncc(F)c(NOCc2ccccc2)n1 [Compound 1087] | 0 to 25 | 0 to 25 | 0 to 25 | 0 to 25 |  |  |  |  |
| C=CCOc1ncc(F)c(N(O)Cc2ccccc2)n1 [Compound 1088] | 0 to 25 | 26 to 50 | 0 to 25 | 0 to 25 |  |  |  |  |
| Cc1ccc(COc2ncc(F)c(/N=N/c3cc(C)ccc3C)n2)cc1 [Compound 1089] | 0 to 25 | 0 to 25 | 26 to 50 | 26 to 50 |  |  |  |  |
| Fc1ccc(COc2ncc(F)c(/N=N/c3ccc(Cl)c(Cl)c3)n2)cc1 [Compound 1090] | 0 to 25 | 0 to 25 | 26 to 50 | 26 to 50 |  |  |  |  |
| CC(C)(C)NNc1nc(O)ncc1F [Compound 1092] | 0 to 25 | 26 to 50 | 0 to 25 | 26 to 50 |  |  |  |  |
| NN(Cc1ccccc1)c1nc(O)ncc1F [Compound 1093] | 0 to 25 | 0 to 25 | 0 to 25 | 0 to 25 |  |  |  |  |
| Oc1ncc(F)c(N(O)Cc2ccccc2)n1 [Compound 1094] | 0 to 25 | 0 to 25 | 26 to 50 | 26 to 50 |  |  |  |  |
| Oc1ncc(F)c(NOCc2ccccc2)n1 [Compound 1095] | 0 to 25 | 0 to 25 | 0 to 25 | 0 to 25 |  |  |  |  |
| CON(C)c1nc(O)ncc1F [Compound 1096] | 0 to 25 | 0 to 25 | 0 to 25 | 76 to 100 |  |  |  |  |
| COc1ncc(F)c(/N=N/c2c(Cl)cccc2Cl)n1 [Compound 1097] | 0 to 25 | 0 to 25 | 0 to 25 | 26 to 50 |  |  |  |  |
| Oc1ncc(F)c(NNc2ccccc2Cl)n1 [Compound 1098] | 0 to 25 | 0 to 25 | 0 to 25 | 0 to 25 |  |  |  |  |
| C=CCOc1ncc(F)c(/N=N/c2ccccc2F)n1 [Compound 1099] | 0 to 25 | 0 to 25 | 0 to 25 | 0 to 25 |  |  |  |  |
| C=CCOc1ncc(F)c(/N=N/c2ccc(Br)cc2)n1 [Compound 1100] | 0 to 25 | 0 to 25 | 26 to 50 | 26 to 50 |  |  |  |  |
| CS(=O)(=O)Nc1nc(O)ncc1F [Compound 1101] | 0 to 25 | 0 to 25 | 0 to 25 | 0 to 25 |  |  |  |  |
| COc1ccccc1S(=O)(=O)Nc1nc(O)ncc1F [Compound 1102] | 0 to 25 | 0 to 25 | 26 to 50 | 26 to 50 |  |  |  |  |
| O=S(=O)(Nc1nc(O)ncc1F)c1ccccc1Cl [Compound 1103] | 0 to 25 | 0 to 25 | 0 to 25 | 0 to 25 |  |  |  |  |

| Compound | pest or weed control at 25 ppm [1] [%] | pest or weed control at 25 ppm [2] [%] | pest or weed control at 25 ppm [3] [%] | pest or weed control at 100 ppm [4] [%] | pest or weed control at 25 ppm (24 h, one day protectant (1DP), 25 ppm (first 1DP column), percent disease control rating, read-out: SETTTR 1DP 25 ppm) [%] | pest or weed control at 25 ppm (24 h, one day protectant (1DP), 25 ppm as printed (second 1DP column), percent disease control rating, read-out: SETTTR 1DP 25 ppm) [%] | pest or weed control at 25 ppm (72 h, three day curative (3DC), 25 ppm, percent disease control rating, read-out: SEPTTR 3DC 25 ppm) [%] | pest or weed control at 100 ppm (72 h, three day curative (3DC), percent disease control rating) [%] |
| --- | --- | --- | --- | --- | --- | --- | --- | --- |
| O=S(=O)(Nc1nc(O)ncc1F)C1CC1 [Compound 1104] | 0 to 25 | 0 to 25 | 0 to 25 | 0 to 25 |  |  |  |  |
| CCS(=O)(=O)Nc1nc(O)ncc1F [Compound 1105] | 0 to 25 | 0 to 25 | 0 to 25 | 0 to 25 |  |  |  |  |
| COc1nn(C)c(C(F)(F)F)c1S(=O)(=O)Nc1nc(O)ncc1F [Compound 1106] | 0 to 25 | 0 to 25 | 0 to 25 | 0 to 25 |  |  |  |  |
| O=S(=O)(Nc1nc(OCc2cccs2)ncc1F)c1ccccc1 [Compound 1107] | 0 to 25 | 0 to 25 | 0 to 25 | 0 to 25 |  |  |  |  |
| C/C(=N\Nc1nc(O)ncc1F)c1ccc(Br)cc1 [Compound 1108] | 0 to 25 | 0 to 25 | 0 to 25 | 0 to 25 |  |  |  |  |
| C=CCOc1ncc(F)c(/N=N/c2cc(C)ccc2C)n1 [Compound 1109] | 0 to 25 | 0 to 25 | 0 to 25 | 0 to 25 |  |  |  |  |
| COc1ncc(F)c(/N=N/c2ccccc2Cl)n1 [Compound 1110] | 0 to 25 | 0 to 25 | 0 to 25 | 0 to 25 |  |  |  |  |
| Oc1ncc(F)c(N/N=C/c2ccco2)n1 [Compound 1112] | 0 to 25 | 0 to 25 | 0 to 25 | 26 to 50 |  |  |  |  |
| CC(C)(C)C(=O)OCOc1ncc(F)c(NC=O)n1 [Compound 1113] | 76 to 100 | 76 to 100 | 76 to 100 | 76 to 100 |  |  |  |  |
| C/C(=N\Oc1ncc(F)c(N)n1)C(F)(F)F [Compound 1114] | 0 to 25 | 0 to 25 | 26 to 50 | 76 to 100 |  |  |  |  |
| CCOCNc1nc(O)ncc1F [Compound 1115] | 26 to 50 | 76 to 100 | 26 to 50 | 76 to 100 |  |  |  |  |
| Oc1ncc(F)c(N/N=C/c2ccccc2Cl)n1 [Compound 1118] | 0 to 25 | 0 to 25 | 0 to 25 | 0 to 25 |  |  |  |  |
| CC(C)(C)C(=O)OCOc1ncc(F)c(N)n1 [Compound 1119] | 76 to 100 | 76 to 100 | 76 to 100 | 76 to 100 |  |  |  |  |
| COc1ncc(F)c(NNC(=O)Cc2ccccc2)n1 [Compound 1120] | 0 to 25 | 0 to 25 | 0 to 25 | 0 to 25 |  |  |  |  |
| COc1ncc(F)c(NNC(=O)c2ccc(Cl)cc2)n1 [Compound 1121] | 0 to 25 | 0 to 25 | 0 to 25 | 0 to 25 |  |  |  |  |
| C=CCOc1ncc(F)c(NNC(=O)C=C(C)C)n1 [Compound 1123] | 0 to 25 | 0 to 25 | 0 to 25 | 0 to 25 |  |  |  |  |
| C=CCOc1ncc(F)c(NNC(=O)c2ccncc2)n1 [Compound 1124] | 0 to 25 | 0 to 25 | 0 to 25 | 0 to 25 |  |  |  |  |
| CC(=O)OCOc1ncc(F)c(NC=O)n1 [Compound 1125] | 76 to 100 | 76 to 100 | 76 to 100 | 76 to 100 |  |  |  |  |
| O=CNc1nc(OCOC(=O)C2CCCC2)ncc1F [Compound 1126] | 76 to 100 | 76 to 100 | 76 to 100 | 76 to 100 |  |  |  |  |
| CSCOc1ncc(F)c(/N=C/N(C)C)n1 [Compound 1127] | 76 to 100 | 76 to 100 | 76 to 100 | 76 to 100 |  |  |  |  |
| COc1ncc(F)c(N(NC(=O)c2ccc(Cl)cc2)C(=O)c2ccc(Cl)cc2)n1 [Compound 1128] | 0 to 25 | 0 to 25 | 0 to 25 | 0 to 25 |  |  |  |  |
| Cc1ccc(COc2ncc(F)c(NC#N)n2)cc1 [Compound 1130] |  |  |  |  | 0 to 25 | 0 to 25 | 26 to 50 | 0 to 25 |
